The source of these data is ChEMBL document CHEMBL1144436, “1-(Phenyl)isoquinoline carboxamides: a novel class of subtype selective inhibitors of thyrotropin-releasing hormone (TRH) receptors” (Bioorg Med Chem Lett, 2005).

The test addresses T1, Thyrotropin-releasing hormone receptor (Mus musculus) (UniProt P21761).
T1 sequence (whole entry): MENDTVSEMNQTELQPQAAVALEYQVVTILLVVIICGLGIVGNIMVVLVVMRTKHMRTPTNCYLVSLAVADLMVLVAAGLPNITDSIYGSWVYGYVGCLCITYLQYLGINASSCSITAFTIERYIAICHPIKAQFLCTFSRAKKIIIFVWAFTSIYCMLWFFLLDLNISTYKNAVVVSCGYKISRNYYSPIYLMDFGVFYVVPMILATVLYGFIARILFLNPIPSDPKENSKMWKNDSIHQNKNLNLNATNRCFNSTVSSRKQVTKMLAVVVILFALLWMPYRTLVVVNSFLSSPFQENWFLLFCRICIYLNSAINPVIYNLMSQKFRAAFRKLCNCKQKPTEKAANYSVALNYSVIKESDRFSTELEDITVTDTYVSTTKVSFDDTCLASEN
Description: Displacement of [3H]MeTRH from Thyrotropin releasing hormone receptor 1 was measured; expressed as %.

Where “and” joins values, the source holds several entries; their conditions need not be identical. Equal values may be shown once.

Take `CCC(C)N(C)C(=O)c1cc2ccccc2c(-c2ccccc2Cl)n1` (stereo in doubt; 10): the Competition was 73% and 90%.

In the case of `CNC(=O)c1cc2ccccc2c(-c2ccccc2Cl)n1`, the Competition is 33% and 29%.

Turning to `CCCCN(C)C(=O)c1cc2ccccc2c(-c2ccccc2Cl)n1`, the Competition was 84% and 92%.

Take `CCC(C)N(C)C(=O)c1cc2ccccc2c(-c2ccccc2Cl)n1` (stereo in doubt): the Competition is 44% and 56%.

Turning to `CCC(C)NC(=O)c1cc2ccccc2c(-c2cccc([N+](=O)[O-])c2)n1` (configuration not stated), the Competition was 21% and 31%.

`CCCNC(=O)c1cc2ccccc2c(-c2ccccc2Cl)n1`: the Competition is 78% and 91%.

With `CCC(C)NC(=O)c1cc2ccccc2c(-c2ccc([N+](=O)[O-])cc2)n1` (configuration not stated), the Competition was 16% and 40%.
